In patent US7208517B1, “Endothelin antagonists” (Abbott Labortories, priority 1994, dated 2007):

Biological target: T1, ETA Receptor (Rattus norvegicus, UniProt P26684)
T1 construct: endogenous in cells; host or cells: MMQ rat pituitary cells (membranes)
T1 sequence (P26684 21-426): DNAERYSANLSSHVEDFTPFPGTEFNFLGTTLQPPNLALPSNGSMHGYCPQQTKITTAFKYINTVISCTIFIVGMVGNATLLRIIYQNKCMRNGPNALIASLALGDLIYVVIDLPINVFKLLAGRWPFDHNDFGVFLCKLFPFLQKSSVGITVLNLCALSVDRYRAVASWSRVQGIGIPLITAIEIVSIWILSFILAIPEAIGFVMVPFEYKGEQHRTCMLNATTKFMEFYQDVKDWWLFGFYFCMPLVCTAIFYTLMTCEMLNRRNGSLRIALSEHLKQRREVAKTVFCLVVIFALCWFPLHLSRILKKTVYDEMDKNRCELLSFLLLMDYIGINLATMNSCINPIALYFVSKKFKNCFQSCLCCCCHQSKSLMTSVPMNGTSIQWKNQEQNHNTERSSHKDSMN
Experiment: [125I]ET-1 binding to membranes from MMQ cells (ETA receptor binding assay, Table 4)
Conditions: test compound at 1 μM; 0.1 nM [125I]ET-1, MMQ cell membranes, 4 hours at 25° C.

% Inhibition of ETA at 1 μM [%]	SMILES
92.2	CCCCN(CCCC)C(=O)CN1CC(c2ccc3c(c2)OCO3)C(C(=O)O)C1c1ccc(CC)cc1 (stereo not drawn) [Example 307, trans—trans-2-(4-Ethylphenyl)-4-(1,3-benzodioxol-5-yl)-1-[N,N-di(n-butyl)aminocarbonylmethyl]-pyrrolidine-3-carboxylic acid]
80.7	CCCCN(CCCC)C(=O)CN1CC(c2ccc3c(c2)OCO3)C(C(=O)O)C1CCOC (stereo not drawn) [Example 309, trans—trans-2-(2-Methoxyethyl)-4-(1,3-benzodioxol-5-yl)-1-[N,N-di(n-butyl)aminocarbonylmethyl]-pyrrolidine-3-carboxylic acid]
87.1	CCCCCS(=O)(=O)N(CC)CCN1CC(c2ccc3c(c2)OCO3)C(C(=O)O)C1c1ccc(OC)cc1 (stereo not drawn) [Example 310, trans,trans-2-(4-Methoxyphenyl)-4-(1,3-benzodioxol-5-yl)-1-(2-(N-ethyl-N-n-pentanesulfonylamino)ethyl)-pyrrolidine-3-carboxylic acid]
92.3	COc1ccc(C2C(C(=O)O)C(c3ccc4c(c3)OCO4)CN2CC(=O)N(C2CCCCC2)C2CCCCC2)cc1 (stereo not drawn) [Example 311, trans—trans-2-(4-Methoxyphenyl)-4-(1,3-benzodioxol-5-yl)-1-[N,N-dicyclohexylaminocarbonylmethyl]-pyrrolidine-3-carboxylic acid]

The remaining lines, values behind:

SMILES	% Inhibition of ETA at 1 μM [%]
CCCCCS(=O)(=O)N(CCC)CCN1CC(c2ccc3c(c2)OCO3)C(C(=O)O)C1c1ccc(OC)cc1 (stereo not drawn) [Example 299, trans,trans-2-(4-Methoxyphenyl)-4-(1,3-benzodioxol-5-yl)-1-(2-(N-propyl-N-n-pentanesulfonylamino)ethyl)-pyrrolidine-3-carboxylic acid]	90.4
C=C(C)CS(=O)(=O)N(CCC)CCN1CC(c2ccc3c(c2)OCO3)C(C(=O)O)C1c1ccc(OC)cc1 (stereo not drawn) [Example 301, trans,trans-2-(4-Methoxyphenyl)-4-(1,3-benzodioxol-5-yl)-1-(2-(N-propyl-N-(2-methyl-2-propenesulfonyl)amino)ethyl)-pyrrolidine-3-carboxylic acid]	96.7
CCC1CCCCN1C(=O)CN1CC(c2ccc3c(c2)OCO3)C(C(=O)O)C1c1ccc(OC)cc1 (stereo not drawn) [Example 302, trans—trans-2-(4-Methoxyphenyl)-4-(1,3-benzodioxol-5-yl)-1-[2-ethylpiperidinyl-carbonylmethyl]-pyrrolidine-3-carboxylic acid]	86.6
CCCCCCCS(=O)(=O)N(CCC)CCN1CC(c2ccc3c(c2)OCO3)C(C(=O)O)C1c1ccc(OC)cc1 (stereo not drawn) [Example 304, trans,trans-2-(4-Methoxyphenyl)-4-(1,3-benzodioxol-5-yl)-1-(2-(N-propyl-N-heptanesulfonylamino)ethyl)-pyrrolidine-3-carboxylic acid]	89.7
CCOC(=O)N(CC)CCN1CC(c2ccc3c(c2)OCO3)C(C(=O)O)C1c1ccc(OC)cc1 (stereo not drawn) [Example 305, trans—trans-2-(4-Methoxyphenyl)-4-(1,3-benzodioxol-5-yl)-1-[2-(N-ethyl-N-ethoxycarbonylamino)ethyl]-pyrrolidine-3-carboxylic acid]	87.4
CCCCCCS(=O)(=O)N(CCC)CCN1CC(c2ccc3c(c2)OCO3)C(C(=O)O)C1c1ccc(OC)cc1 (stereo not drawn) [Example 306, trans,trans-2-(4-Methoxyphenyl)-4-(1,3-benzodioxol-5-yl)-1-(2-(N-propyl-N-hexanesulfonylamino)ethyl)-pyrrolidine-3-carboxylic acid]	93.3
CCCN(CCN1CC(c2ccc3c(c2)OCO3)C(C(=O)O)C1c1ccc(OC)cc1)C(=O)OC(C)(C)C (stereo not drawn) [Example 312, trans—trans-2-(4-Methoxyphenyl)-4-(1,3-benzodioxol-5-yl)-1-[2-(N-propyl-N-tert-butoxycarbonylamino)ethyl]-pyrrolidine-3-carboxylic acid]	88.2
